Reference: PMC9241669, “Allantodapsone is a Pan-Inhibitor of Staphylococcus aureus Adhesion to Fibrinogen, Loricrin, and Cytokeratin 10” (Microbiology Spectrum, 2022)
Read-outs that look alike come from different tables or passages of the source.

How the values were obtained:
recombinant ClfB N2N3 = recombinant ClfB N2N3 (Staphylococcus aureus, UniProt O86476); test: ELISA of recombinant ClfB N2N3 binding to immobilized GST-L2v loricrin; parameters: species or system S. aureus; conditions: allantodapsone 100 μM; ClfB 5 μM; P < 0.0001
Sequence of recombinant ClfB N2N3 (O86476 201-542): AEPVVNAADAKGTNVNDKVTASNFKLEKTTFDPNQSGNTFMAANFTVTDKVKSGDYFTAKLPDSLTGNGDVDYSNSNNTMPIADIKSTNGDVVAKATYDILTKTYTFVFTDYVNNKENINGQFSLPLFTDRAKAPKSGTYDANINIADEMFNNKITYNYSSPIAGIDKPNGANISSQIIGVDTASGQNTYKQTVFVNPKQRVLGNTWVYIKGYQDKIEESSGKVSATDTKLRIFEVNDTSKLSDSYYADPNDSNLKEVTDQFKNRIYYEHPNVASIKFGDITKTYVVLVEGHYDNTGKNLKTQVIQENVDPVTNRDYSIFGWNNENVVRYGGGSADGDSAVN
Method: FIG 4 Allantodapsone inhibits S. aureus adhesion to loricrin and cytokeratin 10. Dose-response curve for adhesion of S. aureus Newman to GST-L2v loricrin (A) and CK10 (C). (B) Inhibition of recombinant ClfB N2N3 binding to immobilized GST-L2v loricrin by allantodapsone. (D) Inhibition of S. aureus Newman adhesion to GST-L2v loricrin by allantodapsone derivatives. Purified GST-L2v or CK10 were used to coat plates at 4°C overnight. Wells were washed with PBS and blocked with 1% BSA. Washed bacteria (OD600 of 1) were mixed with allantodapsone or vehicle control before being added to the wells and incubated for 2 h at 37°C. Adherent cells were washed, fixed, and stained with crystal violet, and wells further washed. The dye was dissolved in acetic acid, and the absorbance measured at 570 nm. GST-L2v was used at 20 μM in A and D. CK10 was used at 10 nM. […] Bound ClfB was detected using peroxidase-conjugated anti-His monoclonal antibody in an ELISA. […]
Recombinant GST-tagged L2v loricrin (120 nM) was coated onto a microtiter plate (Nunc Maxisorb) in sodium carbonate buffer (15 mM Na2CO3, 35 mM NaHCO3, pH 9.6) for 16 h at 4°C. […] Bound ClfB was detected with peroxidase-conjugated anti-His monoclonal antibody in 1% (wt/vol) skimmed milk proteins in PBS. […] The reaction was stopped by the addition of 2 M H2S0_4 (50 μL/well), and the A450 was measured in a plate reader (Labsystems).

U-937 cells = format: cell-based, human; conditions: 100 μM, undifferentiated U-937 monocyte cells, n=2, preliminary
Method: (§1) V. Microbiology: Materials and Methods
(§2) The MTT toxicity assay (1) (Vybrant MTT Cell Proliferation Assay, Molecular Probes, Or, USA) was used to measure cytotoxicity. Myeloid lineage, U-937 cells (2) were grown in RPMI-1640 (Gibco) culture medium supplemented with 10% foetal calf serum, 1% L-glutamine and 1% Penicillin/Streptomycin (Gibco). U-937 cells were centrifuged and cells diluted with fresh medium containing 1.2 mM MTT solution to a concentration of (5-6 x 10^6 per mL) and incubated at 37 °C for 2 h. Cells were centrifuged and the pellet dissolved in DMSO. The absorbance was read at 490 nm using the Wallac Victor2, (Shelton, Connecticut, USA).
(§3) Platelet aggregation was performed in platelet rich plasma according to O’Brien et al.
(§4) S. aureus Newman (stationary phase) was washed and diluted to an OD600 of 2.5.
(§5) This was mixed with 10 mg/mL of fibrinogen in 1:1 ratio resulting in a final concentration 5 mg/mL fibrinogen. Fibrinogen -bacteria aggregates clump and settle at the bottom of the tube resulting in a clear solution. These were compared to the turbid bacterial suspension in buffer by visual inspection. […]
was tested for toxicity using the MTT assay (VybrantTM MTT Cell Proliferation Assay, Molecular Probes, OR, USA). 10% DMSO is used as a positive control in this assay.
Allantodapsone was incubated with undifferentiated U-937 monocyte cells at 100
µM. […]

S. aureus Newman = test: Agglutination (fibrinogen clumping) assay; format: cell-based, Staphylococcus aureus; conditions: 100 μM allantodapsone; 5 mg/mL fibrinogen; stationary phase
Method: as §1, §2, §3, §4, §5
of S. aureus Newman was used as an agonist to stimulate platelet aggregation. The FcγRIIa antibody IV.3 (StemCell Technologies, London, UK) was used at a concentration of […]. […] Data was analysed by repeated measures ANOVA followed by a multiple comparison Dunnett’s test. […]

For `Nc1ccc(S(=O)(=O)c2ccc(NCN3C(=O)NC(=O)C(=O)C3=O)cc2)cc1` [Allantodapsone], the “inhibition of recombinant ClfB binding to L2v loricrin” value (recombinant ClfB N2N3) was “inhibited”, the “toxic effect on human cells, MTT (words)” value (U-937 cells) was “no toxic effect” and the “toxic effect on human cells, MTT (words)” value (U-937 cells; listed as allantodapsone) was “no toxic effects”. For the same compound, the “inhibition of clumping of bacteria in fibrinogen” value (S. aureus Newman) was “did not inhibit”.
